Data published in article PMC11577813, “Eurasian spruce bark beetle detects lanierone using a highly expressed specialist odorant receptor, present in several functional sensillum types” (BMC Biology, 2024).

Molecular target: T1, ItypOR36 (with ItypOrco) (Ips typographus, UniProt A0AAU6S471)
T1 construct: gene OR36; heteromeric OR/Orco ligand-gated ion channel; GenBank id is for ItypOR36; with Odorant receptor coreceptor
T1 sequence (A0AAU6S471 1-390): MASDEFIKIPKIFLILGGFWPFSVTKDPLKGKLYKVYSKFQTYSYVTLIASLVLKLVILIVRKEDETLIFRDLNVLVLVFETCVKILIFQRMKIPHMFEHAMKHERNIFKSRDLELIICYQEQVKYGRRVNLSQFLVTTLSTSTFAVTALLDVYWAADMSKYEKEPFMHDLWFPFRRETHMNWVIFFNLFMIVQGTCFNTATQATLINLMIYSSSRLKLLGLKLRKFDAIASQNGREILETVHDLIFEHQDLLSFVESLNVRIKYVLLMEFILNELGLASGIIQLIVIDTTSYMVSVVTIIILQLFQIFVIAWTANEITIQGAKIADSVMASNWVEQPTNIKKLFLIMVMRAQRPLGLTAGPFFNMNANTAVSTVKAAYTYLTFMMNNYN
Assay: Fluo4-AM calcium fluorescence in HEK293 cells, dose-response
Format: cell-based
Conditions: agonist; co-expressed ItypOrco; doxycycline-induced; DPBS with 1 mM probenecid, pH 7.1

EC50: 790 nM
Compound: CC1=CC(C)(C)C=C(O)C1=O [lanierone, 2-hydroxy-4,4,6-trimethyl-2,5-cyclohexadien-l-one]
